Source: PMC5666006, “Combating virulence of Gram-negative bacilli by OmpA inhibition” (Scientific Reports, 2017)
Where a SMILES comes first, the peptide text is derived from it. [ ]: non-standard residue; d: D form.

Key:
A. baumannii ATCC 17978 [1] = assay type: cell-based
Experimental: (§1) In the initial screening, the bactericidal activity of the synthetic peptides and their toxicity on human lung epithelial cells (A549) were evaluated.
(§2) Table S1. MICs of the six hexapeptides for A. baumannii and E. coli.
(§3) Peptides P. aeruginosa PaO1
(§4) MIC: minimal inhibitory concentration

E. coli ATCC 25922 [2] = assay type: cell-based
Experimental: as §1, §2, §3, §4

P. aeruginosa PaO1 [3] = assay type: cell-based
Experimental: as §1, §2, §3, §4

A. baumannii ATCC 17978 [4] = experiment: Bacterial cytotoxicity on A549 cells, MTT assay; assay type: cell-based; conditions: A. baumannii ATCC 17978 pretreated with 0.25 or 0.5 mg/mL, 24 h
Experimental: (§5) Bacterial cytotoxicity. […] Prior the evaluation of bacterial cytotoxicity, we firstly removed viable bacteria from A549 cells cultures and washed A549 cells five times with pre-warmed PBS. Then, cellular viability was assessed as indicated above.

E. coli ATCC 25922 [5] = experiment: Bacterial cytotoxicity on A549 cells, MTT assay; assay type: cell-based; conditions: E. coli ATCC 25922 pretreated with 0.25 or 0.5 mg/mL, 24 h
Experimental: as §5

P. aeruginosa PaO1 [6] = experiment: Bacterial cytotoxicity on A549 cells, MTT assay; assay type: cell-based; conditions: P. aeruginosa PaO1 pretreated with 0.25 or 0.5 mg/mL, 24 h
Experimental: as §5

[7] = test system: JPAB01: ompA-deficient ATCC 17978 strain; experiment: Bacterial cytotoxicity on A549 cells, MTT assay; assay type: cell-based, A. baumannii; conditions: JPAB01, 0.5 mg/mL, 48 h
Experimental: as §5
Figure S5. Cell death induced by A. baumannii ATCC 17978 and JPAB01 strains. A549 cells were infected for 48 h with 10^8 CFU/mL of ATCC 17978 and JPAB01 strains treated with AOA-2 (0 or 0.5 mg/mL). Bacterial cytotoxicity was assessed by monitoring the mitochondrial reduction activity using the MTT assay. Representative results of two independent experiments are shown; data are means ± SEM. JPAB01: ompA-deficient ATCC 17978 strain. *P<0.05: between infected and non-infected cells, #P<0.05: between untreated and treated groups. […]

A. baumannii ATCC 17978 [8] = experiment: Time kill curves; assay type: cell-based; conditions: 0.25–1 mg/mL
From the text: (§6) Figure S4. Time kill curves of A. baumannii ATCC 17978, P. aeruginosa PaO1, and E. coli
(§7) (also on this page, place not known: Bacterial concentration ( Log CFU/mL) Bacterial concentration ( Log CFU/mL) Bacterial concentration ( Log CFU/mL))

E. coli ATCC 25922 [9] = experiment: Time kill curves; assay type: cell-based; conditions: 0.25–1 mg/mL
From the text: as §6, §7

P. aeruginosa PaO1 [10] = experiment: Time kill curves; assay type: cell-based; conditions: 0.25–1 mg/mL
From the text: as §6, §7

[11] = AOA-2 in vivo toxicity (Reed and Munch method); set-up: species or system mouse; conditions: female, C57BL/6, mouse, in vivo, ip, mice, single i.p. dose, groups of six, survival one week
Experimental: (§8) Animals were housed in regulation cages with food and water ad libitum. This study was carried out in strict accordance with the recommendations in the Guide for the Care and Use of Laboratory Animals[41]. The protocol was approved by the Committee on the Ethics of Animal Experiments of the University Hospital of Virgen del Rocío, Seville (2012PI/238). All surgery was performed under sodium thiopental anaesthesia, and all efforts were made to minimize suffering.
(§9) The Reed and Munch method was used[42]. […] LD50 value was determined using the Probit method.
(§10) 20, 40, 80 or 160 mg/kg. Mice survival was monitored for a one week and lethal doses (LD) 0,
(§11) 50 and 100 were calculated.

C57BL/6 female mice = experiment: AOA-2 in vivo toxicity (Reed and Munch method); set-up: species or system mouse
Experimental: as §8, §9, §10, §11

A. baumannii ATCC 17978 [12] = experiment: Murine peritoneal sepsis model; assay type: in vivo, mouse
Experimental: (§12) Murine peritoneal sepsis models with A. baumannii ATCC 17978, P. aeruginosa PaO1 or E. coli ATCC 25922 strains were established by i.p. inoculation of the bacteria. Briefly, mice were inoculated with 0.5 mL of the bacterial suspensions, which were incubated for 20–24 h in LB at 37 °C and mixed in a 1:1 ration with a saline solution containing 10% (w/v) porcine mucin (Sigma, Spain).
(§13) The murine peritoneal sepsis models by A. baumannii ATCC 17978, P. aeruginosa PaO1 or E. coli ATCC 25922 strains were established by i.p. inoculation of the bacteria. Briefly, animals were infected i.p. with 0.5 mL of the MLD100 of A. baumannii ATCC 17978, P. aeruginosa PaO1, or E. coli ATCC 25922 strains mixed 1:1 with 10% porcine mucin. […] Fifthy-six mice were randomly ascribed to the following groups: 1). controls (without treatment), and 2). […] Mortality was recorded over 72 h. After death or sacrifice of the mice at the end of the experimental period, aseptic thoracotomies were performed, and blood samples were obtained by cardiac puncture for qualitative blood cultures. The spleen and lungs were aseptically removed and homogenized (Stomacher 80; Tekmar Co., USA) in 2 mL of sterile NaCl 0.9% solution. Ten-fold dilutions of the homogenized spleen and lungs were plated onto Sheep blood agar for quantitative cultures (log CFU/g of spleen or lungs).

E. coli ATCC 25922 [13] = experiment: Murine peritoneal sepsis model; assay type: in vivo, mouse
Experimental: as §12, §13

P. aeruginosa PaO1 [14] = experiment: Murine peritoneal sepsis model; assay type: in vivo, mouse
Experimental: as §12, §13

[15] = AOA-2 pharmacokinetics in serum; conditions: mouse, in vivo, ip, 10 mg/kg
[16] = A. baumannii ATCC 17978, 10 mg/kg/d i.p., 72 h
[17] = A. baumannii ATCC 17978 MLD i.p., 10 mg/kg AOA-2 i.p. 2 h after challenge
[18] = E. coli ATCC 25922, 10 mg/kg/d i.p., 72 h
[19] = E. coli ATCC 25922 MLD i.p., 10 mg/kg AOA-2 i.p. 2 h after challenge
[20] = P. aeruginosa PaO1, 10 mg/kg/d i.p., 72 h
[21] = P. aeruginosa PaO1 MLD i.p., 10 mg/kg AOA-2 i.p. 2 h after challenge

N=C(N)NCCC[C@@H]1NC(=O)[C@H]2CCCN2C(=O)[C@H](Cc2c[nH]c3ccccc23)NC(=O)[C@H](CCCNC(=N)N)NC(=O)[C@H]2CCCN2C(=O)[C@H](Cc2c[nH]c3ccccc23)NC1=O [AOA-2] (cyclo(RW[dP]RW[dP]))
MIC (A. baumannii ATCC 17978 [1]): > 500 µg/mL
MIC (E. coli ATCC 25922 [2]): > 500 µg/mL
MIC (P. aeruginosa PaO1 [3]): > 500 µg/mL
A549 cell death induced by bacteria (in words) (A. baumannii ATCC 17978 [4]): prevented cell death
A549 cell death induced by bacteria (in words) (E. coli ATCC 25922 [5]): failure
A549 cell death induced by bacteria (in words) (P. aeruginosa PaO1 [6]): prevented cell death
A549 cell death induced by ompA-deficient A. baumannii (in words) [7]: no effect on cell death
bacteriostatic activity (in words) (A. baumannii ATCC 17978 [8]): poor bacteriostatic activity
bacteriostatic activity (in words) (E. coli ATCC 25922 [9]): intermediate behaviour
bacteriostatic activity (in words) (P. aeruginosa PaO1 [10]): relevant bacteriostatic activity
LD50 at 168 h ([11]; Probit method): 85 mg/kg
MTD at 168 h ([11]; read-out: LD0 (maximum tolerated dose)): 40 mg/kg
dose without any evidence of toxicity (C57BL/6 female mice; i.p.): ≤ 40 mg/kg
LD100 (C57BL/6 female mice; single i.p. dose, groups of six, survival one week): 160 mg/kg
mouse mortality (in words) (A. baumannii ATCC 17978 [12]; [16]): decreased
positive blood cultures (in words) (A. baumannii ATCC 17978 [12]; [16]): decreased
reduced the bacterial load in the lungs (A. baumannii ATCC 17978 [12]; [17]): 4.34 log CFU/g
reduced the bacterial load in the spleen (A. baumannii ATCC 17978 [12]; [17]): 4.54 log CFU/g
mouse mortality (in words) (E. coli ATCC 25922 [13]; [18]): decreased
positive blood cultures (in words) (E. coli ATCC 25922 [13]; [18]): decreased
reduced the bacterial load in the lungs (E. coli ATCC 25922 [13]; [19]): 3.47 log CFU/g
reduced the bacterial load in the spleen (E. coli ATCC 25922 [13]; [19]): 3.36 log CFU/g
mouse mortality (in words) (P. aeruginosa PaO1 [14]; [20]): decreased
positive blood cultures (in words) (P. aeruginosa PaO1 [14]; [20]): decreased
reduced the bacterial load in the lungs (P. aeruginosa PaO1 [14]; [21]): 4.29 log CFU/g
reduced the bacterial load in the spleen (P. aeruginosa PaO1 [14]; [21]): 4.04 log CFU/g
half-life [15]: 56 min
